Tests used:
Assay in all cases: relative viability (nuclei count vs DMSO), 5 days (fraction); higher = more cells survive
[1] = compound: CCn1c(-c2nonc2N)nc2c(C#CC(C)(C)O)ncc(OC[C@H]3CCCNC3)c21 + CC(C)C[C@H](NC(=O)[C@H](Cc1ccccc1)NC(=O)c1cnccn1)B(O)O [Bortezomib] (partner 0.002 µM)
Summary of the method: (§1)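 For relative viability, nuclei counts in treated wells were divided by those in vehicle wells. Lung cancer cell lines had been pin-tool dosed in 1536-well plates the day after seeding and cultured for 5 days, then fixed and stained in one step (final 0.05% Triton X-100, 1% formaldehyde, 1 ug/ml Hoechst) and imaged at 4×. Doses were one drug alone or a fixed anchor-drug dose plus five library-drug doses (not always all listed) in √10 steps, and values are duplicate-plate medians.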

[2] = compound: CCn1c(-c2nonc2N)nc2c(C#CC(C)(C)O)ncc(OC[C@H]3CCCNC3)c21 + NC(=O)Nc1cc(-c2cccc(F)c2)sc1C(=O)N[C@H]1CCCNC1 [AZD7762] (partner 0.2 µM)
Summary of the method: as §1

[3] = compound: CCn1c(-c2nonc2N)nc2c(C#CC(C)(C)O)ncc(OC[C@H]3CCCNC3)c21 + CC(=O)c1c(C)c2cnc(Nc3ccc(N4CCNCC4)cn3)nc2n(C2CCCC2)c1=O [Palbociclib] (partner 0.5 µM)
Summary of the method: as §1

BAM7 + Alpelisib = compound: CCOC1=CC=CC=C1N=NC2=C(NN(C2=O)C3=NC(=CS3)C4=CC=CC=C4)C [BAM7] + Cc1nc(NC(=O)N2CCC[C@H]2C(N)=O)sc1-c1ccnc(C(C)(C)C(F)(F)F)c1 [Alpelisib] (partner 2 µM)
Summary of the method: as §1

Cell Line | relative viability ([1]; first compound 0.01 µM) | relative viability ([1]; first compound 0.03162 µM) | relative viability ([1]; first compound 0.1 µM) | relative viability ([1]; first compound 0.3162 µM) | relative viability ([1]; first compound 1 µM) | relative viability ([2]; first compound 0.01 µM) | relative viability ([2]; first compound 0.03162 µM) | relative viability ([2]; first compound 0.1 µM) | relative viability ([2]; first compound 0.3162 µM) | relative viability ([2]; first compound 1 µM) | relative viability ([3]; first compound 0.01 µM) | relative viability ([3]; first compound 0.03162 µM) | relative viability ([3]; first compound 0.1 µM) | relative viability ([3]; first compound 0.3162 µM) | relative viability ([3]; first compound 1 µM) | relative viability (BAM7 + Alpelisib; first compound 0.5 µM) | relative viability (BAM7 + Alpelisib; first compound 5 µM) | relative viability (BAM7 + Alpelisib; first compound 15.81 µM) | relative viability (BAM7 + Alpelisib; first compound 50 µM)
LCLC-103H | 1.02 | 1.12 | 1.08 | 1.07 | 0.937 | 0.752 | 0.862 | 0.743 | 0.668 | 0.696 | 0.511 | 0.475 | 0.503 | 0.48 | 0.352 | 0.998 | 0.837 | 1.08 | 0.984
LCLC-97TM1 | 0.756 | 0.383 | 0.794 | 0.459 | 0.522 | 0.279 | 0.269 | 0.206 | 0.292 | 0.294 | 0.19 | 0.245 | 0.234 | 0.205 | 0.2 | 0.303 | 0.235 | 0.235 | 0.316
NCI-H727 | 0.782 | 0.747 | 0.999 | 0.613 | 0.791 | 0.586 | 0.6 | 0.768 | 0.631 | 0.576 | 0.667 | 0.695 | 0.52 | 0.647 | 0.734 | 0.599 | 0.576 | 0.57 | 0.663
NCI-H1355 | 1.23 | 1.11 | 1.15 | 1.13 | 1.19 | 0.768 | 0.762 | 0.827 | 0.625 | 0.743 | 0.408 | 0.367 | 0.406 | 0.382 | 0.382 | 0.786 | 0.832 | 0.725 | 0.772
HOP-62 | 0.623 | 0.615 | 0.803 | 0.376 | 0.922 | 0.761 | 0.677 | 0.732 | 0.577 | 0.516 | 0.414 | 0.436 | 0.308 | 0.383 | 0.395 | 0.921 | 0.826 | 0.901 | 0.797
NCI-H2085 | 0.861 | 1.02 | 1.03 | 1.03 | 1.05 | 0.966 | 0.982 | 1.01 | 0.954 | 1 | 0.49 | 0.426 | 0.481 | 0.455 | 0.48 | 0.957 | 1.07 | 0.834 | 0.981
